Results on 19 compounds are retold here after PubChem BioAssay AID248 (DTP/NCI, 2004).

Where “and” joins values, the source holds several entries; their conditions need not be identical. Equal values may be shown once. Toxic doses and inconclusive results are not listed.

The assay concerns L1210 leukemia ip in BDF1 mice, survival T/C. Description: NCI In Vivo Anticancer Drug Screen. Data for tumor model L1210 Leukemia (intraperitoneal) in B6D2F1 (BDF1) mice. The following applies: endpoint: mean survival time, higher = longer survival. The gist of the method:
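Transplantable tumor model; survival measured in treated vs vehicle control mice. Value = treated/control.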

[1] abbreviates: dose: 100.0 mg/kg/injection, schedule: Q04DX002 (ip), vehicle: Klucel (hydroxypropylcellulose) (HPC).
[2] abbreviates: dose: 200.0 mg/kg/injection, schedule: Q04DX002 (ip), vehicle: Klucel (hydroxypropylcellulose) (HPC).
Where [3] appears, read: dose: 400.0 mg/kg/injection, schedule: Q04DX002 (ip), vehicle: Klucel (hydroxypropylcellulose) (HPC).
The mark [4] stands for this setting: dose: 25.0 mg/kg/injection, schedule: Q01DX009 (ip), vehicle: saline.
The mark [5] stands for this setting: dose: 50.0 mg/kg/injection, schedule: Q01DX009 (ip), vehicle: saline.
[6] abbreviates: dose: 100.0 mg/kg/injection, schedule: Q01DX009 (ip), vehicle: saline.
Setting [7] is: dose: 100.0 mg/kg/injection, schedule: Q04DX003 (ip), vehicle: Klucel (hydroxypropylcellulose) (HPC).
[8] abbreviates: dose: 200.0 mg/kg/injection, schedule: Q04DX003 (ip), vehicle: Klucel (hydroxypropylcellulose) (HPC).
[9] abbreviates: dose: 100.0 mg/kg/injection, schedule: Q04DX003 (ip), vehicle: saline.
[10] abbreviates: dose: 200.0 mg/kg/injection, schedule: Q04DX003 (ip), vehicle: saline.
Setting [11] is: dose: 400.0 mg/kg/injection, schedule: Q04DX003 (ip), vehicle: saline.

For `CC(C)n1cnc2c(=S)nc[nH]c21`, the T/C by setting is: (dose: 3.12 mg/kg/injection, schedule: Q01DX Z (ip), vehicle: carboxymethylcellulose (CMC)) 106 % of control; (dose: 7.25 mg/kg/injection, schedule: Q01DX Z (ip), vehicle: carboxymethylcellulose (CMC)) 103 % of control; (dose: 7.25 mg/kg/injection, schedule: Q01DX Z (oral), vehicle: carboxymethylcellulose (CMC)) 110 % of control; (dose: 14.5 mg/kg/injection, schedule: Q01DX Z (ip), vehicle: carboxymethylcellulose (CMC)) 110 % of control; (dose: 14.5 mg/kg/injection, schedule: Q01DX Z (oral), vehicle: carboxymethylcellulose (CMC)) 118 % of control; (dose: 29.0 mg/kg/injection, schedule: Q01DX Z (ip), vehicle: carboxymethylcellulose (CMC)) 116 % of control. The T/C (dose: 58.0 mg/kg/injection, schedule: Q01DX Z (oral), vehicle: carboxymethylcellulose (CMC)) is 152 % of control and the T/C (dose: 210.0 mg/kg/injection, schedule: Q01DX Z (ip), vehicle: carboxymethylcellulose (CMC)) was 90 % of control.

Take `COc1ccc(C)cc1NC(=O)Nc1cc([N+](=O)[O-])ccc1F`: the T/C by setting is: under setting [1], 87 % of control; under setting [2], 104 % of control; under setting [3], 108 % of control.

As to `O=[N+]([O-])c1ccc(-[n+]2ccccc2)c([N+](=O)[O-])c1`, the T/C was 105 % of control (dose: 18.75 mg/kg/injection, schedule: Q01DX009 (ip), vehicle: saline); 105 % of control under setting [4]; 103 % of control (dose: 37.5 mg/kg/injection, schedule: Q01DX009 (ip), vehicle: saline); 103 % of control under setting [5]; 102 % of control (dose: 75.0 mg/kg/injection, schedule: Q01DX009 (ip), vehicle: saline); 102 % of control under setting [6]. For the same compound, the T/C (dose: 150.0 mg/kg/injection, schedule: Q01DX009 (ip), vehicle: saline) was 112 % of control.

Take `C[n+]1cc2cc(O)c(O)cc2c2ccc3cc(O)c(O)cc3c21`: the T/C reads like this: (dose: 40.0 mg/kg/injection, schedule: Q01DX009 (ip), vehicle: saline) 102 % of control; (dose: 80.0 mg/kg/injection, schedule: Q01DX009 (ip), vehicle: saline) 107 % of control; (dose: 120.0 mg/kg/injection, schedule: Q01DX009 (ip), vehicle: saline) 98 % of control; (dose: 240.0 mg/kg/injection, schedule: Q01DX009 (ip), vehicle: saline) 98 % of control.

On to `Cc1cc(Oc2nc(Cl)nc(C(Cl)(Cl)Cl)c2Cl)cc(C)c1N(C)C` (tested in a mixture with another compound), for which the T/C is 91 % of control under setting [7] and 105 % of control under setting [8].

Consider `C=C1CC2C=CC1C2` (stereo not given) (tested in a mixture with another compound), for which the T/C runs as follows: (dose: 100.0 mg/kg/injection, schedule: Q01DX001 (ip), vehicle: saline with Tween-80) 98 % of control; (dose: 200.0 mg/kg/injection, schedule: Q01DX001 (ip), vehicle: saline with Tween-80) 93 % of control; (dose: 400.0 mg/kg/injection, schedule: Q01DX001 (ip), vehicle: saline with Tween-80) 94 % of control.

Take `CCCCCCCCCCCC(=O)NC(=S)Nc1ccc([N+](=O)[O-])cc1C`: the T/C under setting [7] is 88 % of control; the T/C under setting [8] was 86 % of control; the T/C (dose: 400.0 mg/kg/injection, schedule: Q04DX003 (ip), vehicle: Klucel (hydroxypropylcellulose) (HPC)) is 90 % of control.

Turning to `CCCNc1ccc(C2=NCCCN2)cc1`, for the setting “dose: 100.0 mg/kg/injection, schedule: Q01DX001 (ip), vehicle: saline”, the T/C was 102 % of control.

As to `CCCc1c(OCC)c(OC)c2c3c(c(-c4c(C)cc5c(CCC)c(OCC)c(OC)c6c5c4OC6NNc4ccccc4)c(C)cc13)OC2NNc1ccccc1` (stereo not given), the T/C (dose: 75.0 mg/kg/injection, schedule: Q01DX001 (ip), vehicle: Klucel (hydroxypropylcellulose) (HPC)) was 98 % of control; the T/C (dose: 150.0 mg/kg/injection, schedule: Q01DX001 (ip), vehicle: Klucel (hydroxypropylcellulose) (HPC)) was 93 % of control; the T/C (dose: 300.0 mg/kg/injection, schedule: Q01DX001 (ip), vehicle: Klucel (hydroxypropylcellulose) (HPC)) was 91 % of control; the T/C (dose: 300.0 mg/kg/injection, schedule: Q04DX003 (ip), vehicle: Klucel (hydroxypropylcellulose) (HPC)) was 87 % of control.

Consider `CCCCCCCCCCCCN1CCC(=O)NC1=O`, for which the T/C is 100 % of control (dose: 100.0 mg/kg/injection, schedule: Q01DX009 (ip), vehicle: saline with Tween-80) and 97 % of control (dose: 200.0 mg/kg/injection, schedule: Q01DX009 (ip), vehicle: saline with Tween-80).

For the compound `CCOC(=O)c1ccc([N+](=O)[O-])s1`, the T/C under setting [9] is 100 % of control, the T/C under setting [10] was 97 % of control and the T/C under setting [11] is 111 % of control.

Consider `Nc1ncnc2nc(CO)[nH]c12`, for which the T/C is 92 % of control under setting [1], 100 % of control under setting [2] and 95 % of control under setting [3].

On to `O=C(O)c1ccccc1N=CC(=O)c1c2ccccc2cc2ccccc12`, for which the T/C reads like this: (dose: 12.5 mg/kg/injection, schedule: Q04DX002 (ip), vehicle: Klucel (hydroxypropylcellulose) (HPC)) 105 % of control; (dose: 25.0 mg/kg/injection, schedule: Q04DX002 (ip), vehicle: Klucel (hydroxypropylcellulose) (HPC)) 105 % of control; (dose: 50.0 mg/kg/injection, schedule: Q04DX002 (ip), vehicle: Klucel (hydroxypropylcellulose) (HPC)) 102 % of control.

As for `CNC(C)CC1CCCCC1` (stereo not given), the T/C (dose: 0.78 mg/kg/injection, schedule: Q04DX003 (ip), vehicle: saline) was 94 % of control; the T/C (dose: 1.56 mg/kg/injection, schedule: Q01DX009 (ip), vehicle: saline) was 100 % of control; the T/C (dose: 1.56 mg/kg/injection, schedule: Q04DX003 (ip), vehicle: saline) was 98 % of control; the T/C (dose: 3.12 mg/kg/injection, schedule: Q01DX009 (ip), vehicle: saline) is 102 % of control; the T/C (dose: 3.12 mg/kg/injection, schedule: Q04DX003 (ip), vehicle: saline) was 98 % of control; the T/C (dose: 6.25 mg/kg/injection, schedule: Q01DX009 (ip), vehicle: saline) is 97 % of control. In addition, the T/C reads like this: (dose: 6.25 mg/kg/injection, schedule: Q04DX003 (ip), vehicle: saline) 98 % of control; (dose: 12.5 mg/kg/injection, schedule: Q01DX009 (ip), vehicle: saline) 96 % of control; (dose: 12.5 mg/kg/injection, schedule: Q04DX003 (ip), vehicle: saline) 100 % of control; under setting [4], 97 % of control; (dose: 25.0 mg/kg/injection, schedule: Q04DX003 (ip), vehicle: saline with Tween-80) 94 % of control; under setting [5], 106 % of control.

On to `C[n+]1ccccc1/C=C/c1cccc([N+](=O)[O-])c1`, for which the T/C was 101 % of control (dose: 5.0 mg/kg/injection, schedule: Q04DX003 (ip), vehicle: saline with Tween-80); 90 % of control (dose: 10.0 mg/kg/injection, schedule: Q04DX003 (ip), vehicle: saline with Tween-80); 100 % of control (dose: 20.0 mg/kg/injection, schedule: Q04DX003 (ip), vehicle: saline with Tween-80).

In the case of `CC(C)(C)OC(=O)CNC(=O)CCl`, the T/C under setting [9] was 96 % of control and the T/C under setting [10] was 95 % of control.

Regarding `C=CCS(=O)(=O)c1ccccc1`, the T/C under setting [6] was 106 % of control; the T/C (dose: 200.0 mg/kg/injection, schedule: Q01DX009 (ip), vehicle: saline) was 98 % of control; the T/C (dose: 400.0 mg/kg/injection, schedule: Q01DX009 (ip), vehicle: saline) is 101 % of control.

Turning to `OCC(Cc1ccccc1)N1CCCCC1` (stereo not given), the T/C runs as follows: (dose: 5.0 mg/kg/injection, schedule: Q01DX001 (ip), vehicle: saline) 109 % of control; (dose: 10.0 mg/kg/injection, schedule: Q01DX001 (ip), vehicle: saline) 96 % of control; (dose: 20.0 mg/kg/injection, schedule: Q01DX001 (ip), vehicle: saline) 96 % of control; (dose: 40.0 mg/kg/injection, schedule: Q01DX001 (ip), vehicle: saline) 96 % of control; (dose: 80.0 mg/kg/injection, schedule: Q01DX001 (ip), vehicle: saline) 96 % of control.

Consider `C[N+](C)(C)CCOS(=O)(=O)[O-]`, for which the T/C is 99 % of control (dose: 50.0 mg/kg/injection, schedule: Q04DX003 (ip), vehicle: saline); 97 % of control and 103 % of control under setting [9]; 95 % of control and 105 % of control under setting [10]; 98 % of control under setting [11].
